Earlier results in US11028348B2, “Naturally-derived antimicrobial cleaning solutions” (ProNatural Brands LLC, priority 2014, dated 2021).

Settings: standard pKa

For `O=C(O)CC(O)(CC(=O)O)C(=O)O` [citric acid], the pKa1 is given as 3.1, the pKa2 is given as 4.8 and the pKa3 is given as 6.4.
